According to patent publication US12030896B2, “PIKfyve inhibitors” (Mayo Foundation for Medical Education and Research, priority 2018, dated 2024):
“And” between values parts separate entries of the source, which are not always exact repeats. Identical values can stand only once.

Tests used:
PIKfyve = PIKfyve (Homo sapiens, UniProt Q9Y2I7); assay: Kinase panel screen: inhibition of PIKfyve; assay type: binding; conditions: 50 nM
Description: No other kinase was blocked to that extent by 50 nM of Example 1, indicating its high degree of selectivity.
In contrast, 50 nM Apilimod inhibited two kinases to 1% or 10%, and 3 kinases to 35% of control. To examine non-specific binding at higher concentrations, Example 1, Example 3, and Apilimod were tested at 5000 nM. […] PIKfyve is represented at the bottom left of each dendrogram.

[1] = tested on: Human colorectal carcinoma cell lines (HCT116, HT29); assay: Killing of colorectal carcinoma cell lines (Cell-titer glow); assay type: cell-based; conditions: HCT116, HT29 vs brain tumor cell lines
Description: Human colorectal carcinoma cell lines were similarly tested for killing by the compound. (ATP activity is defined by use of the Cell-titer glow luminescence assay). […] All experiments were performed using RPMI media (Life Technologies) as the base formulation for “complete” media. HT29 cells require physical scraping in addition to trypsin to dissociate from tissue culture plastic.

[2] = Pharmacokinetic study of Example 1 in mouse (IV, IP, PO); assay type: in vivo, Male C57BL/6 Mouse
Description: Species: Male C57BL/6 Mouse, fasted.
PK/PD testing of the compound was performed in mice, after IP, IV, or oral administration.

[3] = IP 30 mg/kg, individual mice M4-M6, 30 mg/kg
[4] = IV 5 mg/kg, individual mice M1-M3, 5 mg/kg
[5] = PO 30 mg/kg, individual mice M7-M9, 30 mg/kg

Sequence of PIKfyve (Q9Y2I7 whole entry): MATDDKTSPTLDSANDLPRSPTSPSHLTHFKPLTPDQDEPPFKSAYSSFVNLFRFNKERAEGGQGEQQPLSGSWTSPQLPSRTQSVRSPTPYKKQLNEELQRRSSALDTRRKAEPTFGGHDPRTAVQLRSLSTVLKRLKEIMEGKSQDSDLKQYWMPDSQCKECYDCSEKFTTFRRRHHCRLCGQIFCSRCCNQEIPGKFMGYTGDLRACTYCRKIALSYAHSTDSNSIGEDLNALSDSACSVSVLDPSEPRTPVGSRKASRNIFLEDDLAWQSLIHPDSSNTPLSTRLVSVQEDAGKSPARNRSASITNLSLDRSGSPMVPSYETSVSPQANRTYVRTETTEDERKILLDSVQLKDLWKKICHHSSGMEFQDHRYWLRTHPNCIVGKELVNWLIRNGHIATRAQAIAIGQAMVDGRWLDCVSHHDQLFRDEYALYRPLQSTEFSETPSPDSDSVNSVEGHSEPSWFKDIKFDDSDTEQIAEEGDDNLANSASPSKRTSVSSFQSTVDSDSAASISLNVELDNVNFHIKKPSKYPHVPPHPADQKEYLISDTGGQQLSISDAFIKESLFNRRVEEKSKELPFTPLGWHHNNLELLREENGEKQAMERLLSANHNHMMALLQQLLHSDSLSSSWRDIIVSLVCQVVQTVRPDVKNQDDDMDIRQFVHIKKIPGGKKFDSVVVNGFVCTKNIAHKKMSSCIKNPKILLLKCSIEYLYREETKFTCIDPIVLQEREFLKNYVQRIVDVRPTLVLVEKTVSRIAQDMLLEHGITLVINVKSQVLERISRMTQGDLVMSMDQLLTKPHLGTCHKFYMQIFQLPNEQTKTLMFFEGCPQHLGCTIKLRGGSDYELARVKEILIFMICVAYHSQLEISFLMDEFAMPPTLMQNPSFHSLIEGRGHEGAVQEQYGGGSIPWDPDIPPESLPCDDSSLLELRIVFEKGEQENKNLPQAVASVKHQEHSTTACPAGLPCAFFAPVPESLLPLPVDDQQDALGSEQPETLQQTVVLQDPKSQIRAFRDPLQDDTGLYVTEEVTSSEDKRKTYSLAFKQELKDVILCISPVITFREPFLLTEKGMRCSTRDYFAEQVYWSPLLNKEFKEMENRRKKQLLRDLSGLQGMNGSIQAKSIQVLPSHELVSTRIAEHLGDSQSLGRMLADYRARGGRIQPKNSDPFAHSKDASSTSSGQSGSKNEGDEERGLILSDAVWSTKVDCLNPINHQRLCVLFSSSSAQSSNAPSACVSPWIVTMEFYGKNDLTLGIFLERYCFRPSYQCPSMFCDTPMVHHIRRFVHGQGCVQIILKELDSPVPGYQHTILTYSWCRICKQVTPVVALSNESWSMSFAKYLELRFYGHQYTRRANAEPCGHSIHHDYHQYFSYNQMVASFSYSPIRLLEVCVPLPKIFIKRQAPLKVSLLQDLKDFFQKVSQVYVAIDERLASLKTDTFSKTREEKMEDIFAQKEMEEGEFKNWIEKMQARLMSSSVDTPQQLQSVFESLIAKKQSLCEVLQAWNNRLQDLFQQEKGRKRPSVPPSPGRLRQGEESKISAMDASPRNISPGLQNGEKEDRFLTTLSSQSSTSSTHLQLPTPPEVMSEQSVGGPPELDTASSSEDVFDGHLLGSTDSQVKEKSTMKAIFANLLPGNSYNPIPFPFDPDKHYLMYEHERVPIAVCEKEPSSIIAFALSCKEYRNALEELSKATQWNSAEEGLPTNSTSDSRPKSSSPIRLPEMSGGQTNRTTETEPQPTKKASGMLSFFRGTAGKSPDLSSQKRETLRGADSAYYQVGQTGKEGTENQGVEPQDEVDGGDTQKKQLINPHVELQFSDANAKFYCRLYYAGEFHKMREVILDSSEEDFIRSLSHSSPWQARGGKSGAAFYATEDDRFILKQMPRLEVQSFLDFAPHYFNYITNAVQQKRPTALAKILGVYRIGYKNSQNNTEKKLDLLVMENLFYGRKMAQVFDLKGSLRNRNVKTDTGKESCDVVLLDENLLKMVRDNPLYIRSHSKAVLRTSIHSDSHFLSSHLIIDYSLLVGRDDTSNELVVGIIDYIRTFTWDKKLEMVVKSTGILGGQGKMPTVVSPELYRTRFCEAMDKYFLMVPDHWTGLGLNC

Cc1ccc(Nc2nc(N/N=C/c3c[nH]c4ccccc34)nc(N3CCOCC3)n2)cc1 [Example 1, (E)-4-(2-((1H-indol-3-yl)methylene)hydrazinyl)-6-morpholino-N-(p-tolyl)-1,3,5-triazin-2-amine]
inhibition at 0.05 µM (PIKfyve): > 99% | sensitivity to compound-induced death [1]: more sensitive | plasma concentration ([2]; IP 30 mg/kg, 0.250 h, individual mice M4-M6, 30 mg/kg): 299 ng/mL and 314 ng/mL | plasma concentration ([2]; IP 30 mg/kg, 0.500 h, individual mice M4-M6, 30 mg/kg): 430 ng/mL and 376 ng/mL | plasma concentration ([2]; IP 30 mg/kg, 1.00 h, individual mice M4-M6, 30 mg/kg): 636 ng/mL and 492 ng/mL | plasma concentration ([2]; IP 30 mg/kg, 2.00 h, individual mice M4-M6, 30 mg/kg): 441 ng/mL and 523 ng/mL | plasma concentration ([2]; IP 30 mg/kg, 4.00 h, individual mice M4-M6, 30 mg/kg): 232 ng/mL and 158 ng/mL | plasma concentration ([2]; IP 30 mg/kg, 6.00 h, individual mice M4-M6, 30 mg/kg): 115 ng/mL and 103 ng/mL | plasma concentration ([2]; IP 30 mg/kg, 24.0 h, individual mice M4-M6, 30 mg/kg): 34.1 ng/mL and 40.7 ng/mL | Tlast ([2]; IP 30 mg/kg, individual mice M4-M6): 24.0 h | AUC0-last [2, 3]: 3110 ng·h/mL and 2925 ng·h/mL | AUC(0-inf) [2, 3]: 3512 ng·h/mL and 3588 ng·h/mL | AUCExtra [2, 3]: 18.0% and 11.5% and 18.5% | AUMCExtra [2, 3]: 54.7% and 41.4% and 56.7% | Cmax [2, 3]: 636 ng/mL and 523 ng/mL | MRT0-inf [2, 3]: 9.91 h and 13.1 h | MRT0-last [2, 3]: 6.56 h and 6.98 h | T1/2 [2, 3]: 8.19 h and 11.3 h | Tmax [2, 3]: 2.00 h | AUCExtra ([2]; IP 30 mg/kg, mean): 16.0% | AUMCExtra ([2]; IP 30 mg/kg, mean): 50.9% | Tlast ([2]; IP 30 mg/kg, mean): 24.0 h | peak concentration ([2]; IP, single 30 mg/kg dose): 534 ng/mL | plasma concentration ([2]; IV 5 mg/kg, 5 min, individual mice M1-M3, 5 mg/kg): 1500 ng/mL and 2090 ng/mL | plasma concentration ([2]; IV 5 mg/kg, 0.250 h, individual mice M1-M3, 5 mg/kg): 1270 ng/mL and 1530 ng/mL | plasma concentration ([2]; IV 5 mg/kg, 0.500 h, individual mice M1-M3, 5 mg/kg): 1060 ng/mL and 1130 ng/mL | plasma concentration ([2]; IV 5 mg/kg, 1.00 h, individual mice M1-M3, 5 mg/kg): 591 ng/mL and 678 ng/mL | plasma concentration ([2]; IV 5 mg/kg, 2.00 h, individual mice M1-M3, 5 mg/kg): 169 ng/mL and 204 ng/mL | plasma concentration ([2]; IV 5 mg/kg, 4.00 h, individual mice M1-M3, 5 mg/kg): 16.7 ng/mL and 16.4 ng/mL | plasma concentration ([2]; IV 5 mg/kg, 6.00 h, individual mice M1-M3, 5 mg/kg): 4.04 ng/mL and 3.44 ng/mL | plasma concentration ([2]; IV 5 mg/kg, 24.0 h, individual mice M1-M3): BQL | Tlast ([2]; IV 5 mg/kg, individual mice M1-M3): 6.00 h | AUC0-last [2, 4]: 1539 ng·h/mL and 1820 ng·h/mL | AUC(0-inf) [2, 4]: 1543 ng·h/mL and 1823 ng·h/mL | AUCExtra [2, 4]: 0.381% and 0.251% and 0.171% | AUMCExtra [2, 4]: 2.79% and 1.96% and 1.39% | C0 [2, 4]: 1630 ng/mL and 2442 ng/mL | Cl [2, 4]: 54.0 mL/min/kg and 45.7 mL/min/kg | MRT0-inf [2, 4]: 0.890 h and 0.847 h | MRT0-last [2, 4]: 0.875 h and 0.836 h | T1/2 [2, 4]: 0.665 h and 0.628 h | Vdss [2, 4]: 2.89 L/kg and 2.32 L/kg | AUCExtra ([2]; IV 5 mg/kg, mean): 0.268% | AUMCExtra ([2]; IV 5 mg/kg, mean): 2.05% | Tlast ([2]; IV 5 mg/kg, mean): 6.00 h | plasma concentration ([2]; PO 30 mg/kg, 0.250 h, individual mice M7-M9, 30 mg/kg): 59.6 ng/mL and 65.0 ng/mL | plasma concentration ([2]; PO 30 mg/kg, 0.500 h, individual mice M7-M9, 30 mg/kg): 84.2 ng/mL and 115 ng/mL | plasma concentration ([2]; PO 30 mg/kg, 1.00 h, individual mice M7-M9, 30 mg/kg): 145 ng/mL and 55.8 ng/mL and 75.3 ng/mL | plasma concentration ([2]; PO 30 mg/kg, 2.00 h, individual mice M7-M9, 30 mg/kg): 58.6 ng/mL and 16.2 ng/mL and 16.7 ng/mL | plasma concentration ([2]; PO 30 mg/kg, 4.00 h, individual mice M7-M9, 30 mg/kg): 12.7 ng/mL and 5.98 ng/mL and 3.78 ng/mL | plasma concentration ([2]; PO 30 mg/kg, 6.00 h, individual mice M7-M9, 30 mg/kg): 11.3 ng/mL and 7.80 ng/mL | plasma concentration ([2]; PO 30 mg/kg, 24.0 h, individual mice M7-M9): BQL | Tlast ([2]; PO 30 mg/kg, individual mice M7-M9): 6.00 h | AUC0-last [2, 5]: 291 ng·h/mL and 129 ng·h/mL and 145 ng·h/mL | AUC(0-inf) [2, 5]: 158 ng·h/mL and 162 ng·h/mL | AUCExtra [2, 5]: 6.68% and 18.1% and 10.7% | AUMCExtra [2, 5]: 25.1% and 52.3% and 41.3% | Cmax [2, 5]: 84.2 ng/mL and 115 ng/mL | MRT0-inf [2, 5]: 2.96 h and 2.14 h | MRT0-last [2, 5]: 1.72 h and 1.41 h | T1/2 [2, 5]: 1.76 h and 1.55 h | AUCExtra ([2]; PO 30 mg/kg, mean): 11.9% | AUMCExtra ([2]; PO 30 mg/kg, mean): 39.6% | Tlast ([2]; PO 30 mg/kg, mean): 6.00 h | concentration at 0.25 h ([2]; male, C57BL/6, mouse, plasma, ip, 30 mg/kg, IP 30 mg/kg, 0.250 h, individual mice M4-M6): 242 ng/mL | concentration at 0.25 h ([2]; male, C57BL/6, mouse, plasma, ip, 30 mg/kg, IP 30 mg/kg, 0.250 h, mean): 285 ng/mL | concentration at 0.5 h ([2]; male, C57BL/6, mouse, plasma, ip, 30 mg/kg, IP 30 mg/kg, 0.500 h, individual mice M4-M6): 381 ng/mL | concentration at 0.5 h ([2]; male, C57BL/6, mouse, plasma, ip, 30 mg/kg, IP 30 mg/kg, 0.500 h, mean): 396 ng/mL | concentration at 1 h ([2]; male, C57BL/6, mouse, plasma, ip, 30 mg/kg, IP 30 mg/kg, 1.00 h, individual mice M4-M6): 443 ng/mL | concentration at 1 h ([2]; male, C57BL/6, mouse, plasma, ip, 30 mg/kg, IP 30 mg/kg, 1.00 h, mean): 524 ng/mL | concentration at 2 h ([2]; male, C57BL/6, mouse, plasma, ip, 30 mg/kg, IP 30 mg/kg, 2.00 h, individual mice M4-M6): 367 ng/mL | concentration at 2 h ([2]; male, C57BL/6, mouse, plasma, ip, 30 mg/kg, IP 30 mg/kg, 2.00 h, mean): 444 ng/mL | concentration at 4 h ([2]; male, C57BL/6, mouse, plasma, ip, 30 mg/kg, IP 30 mg/kg, 4.00 h, individual mice M4-M6): 136 ng/mL
